Read-outs that look alike come from different tables or passages of the source.
Key:
PKC isoenzyme ε = target: T1, PKC isoenzyme ε (Homo sapiens, UniProt Q02156); assay: Protein kinase C inhibition assay, PKC isoenzyme ε; format: biochemical
T1 construct: made in house; host or cells: baculovirus-insect cell expression system
T1 sequence (Q02156 1-737): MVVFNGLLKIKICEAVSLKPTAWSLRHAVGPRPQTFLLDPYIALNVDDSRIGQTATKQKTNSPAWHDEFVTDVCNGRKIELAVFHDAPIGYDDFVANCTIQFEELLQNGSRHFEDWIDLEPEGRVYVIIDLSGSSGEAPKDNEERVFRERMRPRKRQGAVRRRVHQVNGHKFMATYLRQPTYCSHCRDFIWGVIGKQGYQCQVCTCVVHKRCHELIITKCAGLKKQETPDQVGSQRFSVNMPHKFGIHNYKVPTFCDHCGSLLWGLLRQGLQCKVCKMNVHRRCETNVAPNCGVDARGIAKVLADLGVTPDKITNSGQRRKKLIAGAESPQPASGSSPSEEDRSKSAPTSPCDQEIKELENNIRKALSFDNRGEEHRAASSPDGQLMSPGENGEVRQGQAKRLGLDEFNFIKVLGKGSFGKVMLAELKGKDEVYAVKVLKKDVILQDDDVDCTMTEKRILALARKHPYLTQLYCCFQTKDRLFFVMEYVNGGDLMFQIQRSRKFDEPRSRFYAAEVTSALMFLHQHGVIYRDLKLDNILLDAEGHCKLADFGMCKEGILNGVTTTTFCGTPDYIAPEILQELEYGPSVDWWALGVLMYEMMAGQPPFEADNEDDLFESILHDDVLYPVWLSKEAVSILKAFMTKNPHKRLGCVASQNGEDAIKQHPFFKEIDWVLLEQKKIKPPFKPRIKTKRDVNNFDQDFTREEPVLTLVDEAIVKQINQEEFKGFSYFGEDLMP
Description: (§1) A protein kinase C (PKC) assay is designed to duplicate the in vivo conditions required for protein kinase C function. Therefore, pH, salt and cofactor concentrations are similar to physiologic levels. Either lysine rich histone H1 (H1) or Myelin basic protein (Mbp) are used in the assay as the phosphorylation acceptor-protein because they are readily available and serve as good substrates for protein kinase C. Enzyme was prepared from baculovirus-insect cell expression systems.
(§2) In the screening assay, phosphatidylserine (PS) and DAG were co-sonicated to form unilamellar and multilamellar vesicles. The concentration of lipids in the assay were suboptimal to maximize the detection potential of the assay for inhibitors or activators. Potential effector compounds were added to the assay in dimethylsulfoxide at four concentrations to give final inhibitor concentrations of 1, 10, 50, and 150 μM, respectively.
(§3) The assay was started with the addition of enzyme and stopped after 10 min by the addition of 25% trichloroacetic acid (TCA) and 1.0 mg/ml bovine serum albumin (BSA). The radioactive histone product was retained and washed on glass fiber filters that allow the unreacted P-ATP to pass through. The amount of phosphorylation was determined by measuring radioactivity with a scintillation counter. Controls were included in every assay to measure background activity in the absence of enzyme, activity in the absence of lipids, and the maximum enzyme activity with saturating levels of the activator lipids.
(§4) Results of the protein kinase C assay are shown in Table 4 in columns labeled α, βII, γ, δ, ε, and .zeta. which represent various PKC isoenzymes. Results are show as IC50, which is the concentration of test compound needed to inhibit 50% of the protein kinase C activity in controls.

PKC isoenzyme ζ = target: T2, PKC isoenzyme ζ (Homo sapiens, UniProt Q05513); assay: Protein kinase C inhibition assay, PKC isoenzyme ζ; format: biochemical
T2 construct: made in house; host or cells: baculovirus-insect cell expression system
T2 sequence (Q05513 1-592): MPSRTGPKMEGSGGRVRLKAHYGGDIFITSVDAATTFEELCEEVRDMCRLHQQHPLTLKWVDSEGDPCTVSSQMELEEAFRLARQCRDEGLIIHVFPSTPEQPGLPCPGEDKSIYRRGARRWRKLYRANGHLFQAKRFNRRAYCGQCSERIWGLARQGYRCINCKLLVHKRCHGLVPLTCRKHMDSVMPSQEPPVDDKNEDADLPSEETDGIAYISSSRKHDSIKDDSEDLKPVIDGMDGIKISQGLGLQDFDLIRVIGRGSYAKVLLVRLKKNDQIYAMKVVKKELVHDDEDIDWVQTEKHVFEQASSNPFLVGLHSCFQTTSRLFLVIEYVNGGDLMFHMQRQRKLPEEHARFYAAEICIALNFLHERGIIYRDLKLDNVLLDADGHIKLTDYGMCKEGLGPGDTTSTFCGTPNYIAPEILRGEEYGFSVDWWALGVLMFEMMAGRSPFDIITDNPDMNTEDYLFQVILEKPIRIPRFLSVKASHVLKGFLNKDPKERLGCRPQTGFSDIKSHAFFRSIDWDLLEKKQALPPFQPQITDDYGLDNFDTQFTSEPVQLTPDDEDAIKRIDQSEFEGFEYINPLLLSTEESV
Description: as §1, §2, §3, §4

Cc1nnc(NS(=O)(=O)c2ccc(N=C3C=C(Nc4ccc(S(=O)(=O)Nc5nnc(C)s5)cc4)C(=O)c4ccccc43)cc2)s1 [Compound 3e]
IC50 (PKC isoenzyme ε; read-out: IC50 PKC ε): > 150 µM

O=C1C(Nc2ccc(S(=O)(=O)Nc3ccc(Cl)nn3)cc2)=CC(=Nc2ccc(S(=O)(=O)Nc3ccc(Cl)nn3)cc2)c2ccccc21 [Compound 3l]
IC50 (PKC isoenzyme ε; read-out: IC50 PKC ε): > 150 µM | IC50 (PKC isoenzyme ζ; read-out: IC50 PKC .zeta.): 28 µM

Cc1cc(C)nc(NC(=O)c2ccc(N=C3C=C(Nc4ccc(C(=O)Nc5nc(C)cc(C)n5)cc4)C(=O)c4ccccc43)cc2)n1 [Compound 3ai]
IC50 (PKC isoenzyme ε; read-out: IC50 PKC ε): > 105 µM | IC50 (PKC isoenzyme ζ; read-out: IC50 PKC .zeta.): > 150 µM

Cc1cc(C)nc(NS(=O)(=O)c2ccc(N=C3C=C(Nc4ccc(S(=O)(=O)Nc5nc(C)cc(C)n5)cc4)C(=O)c4ccccc43)cc2)n1 [Compound 3c]
IC50 (PKC isoenzyme ε; read-out: IC50 PKC ε): > 150 µM

O=C1C(Nc2ccc(S(=O)(=O)Nc3cnc4ccccc4n3)cc2)=CC(=Nc2ccc(S(=O)(=O)Nc3cnc4ccccc4n3)cc2)c2ccccc21 [Compound 3m]
IC50 (PKC isoenzyme ε; read-out: IC50 PKC ε): > 150 µM | IC50 (PKC isoenzyme ζ; read-out: IC50 PKC .zeta.): 28 µM

Cc1ccnc(NS(=O)(=O)c2ccc(N=C3C=C(Nc4ccc(S(=O)(=O)Nc5nccc(C)n5)cc4)C(=O)c4ccccc43)cc2)n1 [Compound 6f]
IC50 (PKC isoenzyme ζ; read-out: IC50 PKC .zeta.): 35 µM

COc1cc(NS(=O)(=O)c2ccc(N=C3C=C(Nc4ccc(S(=O)(=O)Nc5cc(OC)nc(OC)n5)cc4)C(=O)c4ccccc43)cc2)nc(OC)n1 [Compound 3g]
IC50 (PKC isoenzyme ε; read-out: IC50 PKC ε): > 150 µM

O=C1C(Nc2ccc(S(=O)(=O)Nc3cnc4ccccc4n3)cc2)=CC(=Nc2ccc(S(=O)(=O)Nc3cnc4ccccc4n3)cc2)c2ccccc21 [Compound 6m]
IC50 (PKC isoenzyme ε; read-out: IC50 PKC ε): 141 µM | IC50 (PKC isoenzyme ζ; read-out: IC50 PKC .zeta.): 9 µM

O=C1C(Nc2ccc(S(=O)(=O)Nc3ccccn3)cc2)=CC(=Nc2ccc(S(=O)(=O)Nc3ccccn3)cc2)c2ccccc21 [Compound 3i]
IC50 (PKC isoenzyme ε; read-out: IC50 PKC ε): > 150 µM | IC50 (PKC isoenzyme ζ; read-out: IC50 PKC .zeta.): > 150 µM

Cc1cc(C)nc(NC(=O)c2ccc(N=C3C=C(Nc4ccc(C(=O)Nc5cc(C)cc(C)n5)cc4)C(=O)c4ccccc43)cc2)c1 [Compound 3ah]
IC50 (PKC isoenzyme ε; read-out: IC50 PKC ε): > 150 µM | IC50 (PKC isoenzyme ζ; read-out: IC50 PKC .zeta.): > 150 µM

Cc1cc(NS(=O)(=O)c2ccc(N=C3C=C(Nc4ccc(S(=O)(=O)Nc5cc(C)on5)cc4)C(=O)c4ccccc43)cc2)no1 [Compound 6a]
IC50 (PKC isoenzyme ε; read-out: IC50 PKC ε): 145 µM

COc1cc(NS(=O)(=O)c2ccc(N=C3C=C(Nc4ccc(S(=O)(=O)Nc5cc(OC)cc(OC)c5)cc4)C(=O)c4ccccc43)cc2)cc(OC)c1 [Compound 6af]
IC50 (PKC isoenzyme ε; read-out: IC50 PKC ε): > 150 µM

COc1cnc(NS(=O)(=O)c2ccc(N=C3C=C(Nc4ccc(S(=O)(=O)Nc5ncc(OC)cn5)cc4)C(=O)c4ccccc43)cc2)nc1 [Compound 6h]
IC50 (PKC isoenzyme ζ; read-out: IC50 PKC .zeta.): 47 µM

O=C1C(Nc2ccc(S(=O)(=O)NCc3ccccn3)cc2)=CC(=Nc2ccc(S(=O)(=O)NCc3ccccn3)cc2)c2ccccc21 [Compound 3n]
IC50 (PKC isoenzyme ε; read-out: IC50 PKC ε): > 150 µM | IC50 (PKC isoenzyme ζ; read-out: IC50 PKC .zeta.): > 150 µM

COc1cc(NS(=O)(=O)c2ccc(N=C3C=C(Nc4ccc(S(=O)(=O)Nc5cc(OC)cc(OC)c5)cc4)C(=O)c4ccccc43)cc2)cc(OC)c1 [Compound 3af]
IC50 (PKC isoenzyme ε; read-out: IC50 PKC ε): 111 µM | IC50 (PKC isoenzyme ζ; read-out: IC50 PKC .zeta.): > 150 µM

Cc1noc(NS(=O)(=O)c2ccc(N=C3C=C(Nc4ccc(S(=O)(=O)Nc5onc(C)c5C)cc4)C(=O)c4ccccc43)cc2)c1C [Compound 3b]
IC50 (PKC isoenzyme ε; read-out: IC50 PKC ε): 143 µM

O=C1C(Nc2ccc(S(=O)(=O)NCc3ccccn3)cc2)=CC(=Nc2ccc(S(=O)(=O)NCc3ccccn3)cc2)c2ccccc21 [Compound 6n]
IC50 (PKC isoenzyme ε; read-out: IC50 PKC ε): 149 µM

COc1cc(NS(=O)(=O)c2ccc(N=C3C=C(Nc4ccc(S(=O)(=O)Nc5cc(OC)nc(OC)n5)cc4)C(=O)c4ccccc43)cc2)nc(OC)n1 [Compound 6g]
IC50 (PKC isoenzyme ζ; read-out: IC50 PKC .zeta.): 28 µM

Cc1cc(NS(=O)(=O)c2ccc(N=C3C=C(Nc4ccc(S(=O)(=O)Nc5cc(C)nc(C)n5)cc4)C(=O)c4ccccc43)cc2)nc(C)n1 [Compound 3d]
IC50 (PKC isoenzyme ε; read-out: IC50 PKC ε): > 150 µM

Cc1cc(C)nc(NS(=O)(=O)c2cccc(N=C3C=C(Nc4cccc(S(=O)(=O)Nc5cc(C)cc(C)n5)c4)C(=O)c4ccccc43)c2)c1 [Compound 3ae]
IC50 (PKC isoenzyme ε; read-out: IC50 PKC ε): > 150 µM | IC50 (PKC isoenzyme ζ; read-out: IC50 PKC .zeta.): > 150 µM

O=C1C(Nc2ccc(S(=O)(=O)Nc3ccc(Cl)nn3)cc2)=CC(=Nc2ccc(S(=O)(=O)Nc3ccc(Cl)nn3)cc2)c2ccccc21 [Compound 6l]
IC50 (PKC isoenzyme ε; read-out: IC50 PKC ε): > 150 µM | IC50 (PKC isoenzyme ζ; read-out: IC50 PKC .zeta.): 9 µM

Cc1cc(C)nc(NS(=O)(=O)c2cc(N=C3C=C(Nc4ccc(C)c(S(=O)(=O)Nc5cc(C)cc(C)n5)c4)C(=O)c4ccccc43)ccc2C)c1 [Compound 3ag]
IC50 (PKC isoenzyme ε; read-out: IC50 PKC ε): 8 µM | IC50 (PKC isoenzyme ζ; read-out: IC50 PKC .zeta.): 28 µM

Cc1cc(C)nc(NS(=O)(=O)c2ccc(N=C3C=C(Nc4ccc(S(=O)(=O)Nc5nc(C)cc(C)n5)cc4)C(=O)c4ccccc43)cc2)n1 [Compound 6c]
IC50 (PKC isoenzyme ε; read-out: IC50 PKC ε): 15 µM | IC50 (PKC isoenzyme ζ; read-out: IC50 PKC .zeta.): 132 µM

O=C1C(Nc2ccc(S(=O)(=O)NCCNc3ccc([N+](=O)[O-])cn3)cc2)=CC(=Nc2ccc(S(=O)(=O)NCCNc3ccc([N+](=O)[O-])cn3)cc2)c2ccccc21 [Compound 3ac]
IC50 (PKC isoenzyme ε; IC50 PKC ε): > 150 µM | IC50 (PKC isoenzyme ζ; IC50 PKC .zeta.): > 150 µM

Cc1ccnc(NS(=O)(=O)c2ccc(N=C3C=C(Nc4ccc(S(=O)(=O)Nc5nccc(C)n5)cc4)C(=O)c4ccccc43)cc2)n1 [Compound 3f]
IC50 (PKC isoenzyme ε; read-out: IC50 PKC ε): > 150 µM

COc1ccc(NS(=O)(=O)c2ccc(N=C3C=C(Nc4ccc(S(=O)(=O)Nc5ccc(OC)nn5)cc4)C(=O)c4ccccc43)cc2)nn1 [Compound 6j]
IC50 (PKC isoenzyme ζ; read-out: IC50 PKC .zeta.): 49 µM

Cc1nnc(NS(=O)(=O)c2ccc(N=C3C=C(Nc4ccc(S(=O)(=O)Nc5nnc(C)s5)cc4)C(=O)c4ccccc43)cc2)s1 [Compound 6e]
IC50 (PKC isoenzyme ζ; read-out: IC50 PKC .zeta.): 20 µM

Cc1cc(C)nc(NS(=O)(=O)c2cc(N=C3C=C(Nc4ccc(C)c(S(=O)(=O)Nc5cc(C)cc(C)n5)c4)C(=O)c4ccccc43)ccc2C)c1 [Compound 6ag]
IC50 (PKC isoenzyme ε; read-out: IC50 PKC ε): 35 µM | IC50 (PKC isoenzyme ζ; read-out: IC50 PKC .zeta.): > 150 µM

COc1ccc(NS(=O)(=O)c2ccc(N=C3C=C(Nc4ccc(S(=O)(=O)Nc5ccc(OC)nn5)cc4)C(=O)c4ccccc43)cc2)nn1 [Compound 3j]
IC50 (PKC isoenzyme ε; read-out: IC50 PKC ε): > 150 µM | IC50 (PKC isoenzyme ζ; read-out: IC50 PKC .zeta.): > 150 µM

COc1cnc(NS(=O)(=O)c2ccc(N=C3C=C(Nc4ccc(S(=O)(=O)Nc5ncc(OC)cn5)cc4)C(=O)c4ccccc43)cc2)nc1 [Compound 3h]
IC50 (PKC isoenzyme ε; read-out: IC50 PKC ε): > 150 µM

Source: US5292737A, “N,N'-bis(sulfonamido)-2-amino-4-iminonaphthalen-1-ones and N,N'-bis(amido)-2-amino-4-iminonaphthalen-1-ones” (Sphinx Pharmaceuticals Corporation, priority 1992, dated 1994)
